Experimental data published in patent US11980596B2 (priority 2017, dated 2024).
Values joined by “and” are separate entries in the source; they are usually repeats but may differ in a detail not shown here. Identical values can stand only once. “Also recorded” adds a separate entry of the source. Counter-ions that a name gives are not always drawn. Marks after values point to notes of the source that are not given here.

What was measured:
pregnant rats = test: Embryo-fetal toxicity, intranasal racemic ketamine, pregnant rats; type: in vivo, rat; details: estimating 50% of the exposure to be from esketamine
Protocol: (§1) Racemic ketamine was administered intranasally to pregnant rats during the period of organogenesis at doses of 15, 50, and 150 mg/kg/day. The No Observed Adverse Effect level (NOAEL) for embryo-fetal toxicity in rats was the highest dose of 150 mg/kg/day. […] In pregnant rabbits, racemic ketamine was administered intranasally from gestational day 6 to 18 at doses of 10, 30, and 100 mg/kg/day. The high dose was lowered from 100 to 50 mg/kg after 5 days of dosing due to excessive mortality in the pregnant rabbits.

[1] = as above; type: in vivo, rat; details: female, rat, in vivo, inhaled or intranasal; intranasal; period of organogenesis
Protocol: as §1

pregnant rabbits = test: Embryo-fetal reproduction study, intranasal ketamine, pregnant rabbits; type: in vivo, rabbit
Protocol: as §1

[2] = Single-dose neuronal toxicity study, subcutaneous racemic ketamine (label); type: in vivo, rat; details: rat, in vivo, sc; single subcutaneous dose; read-out: NOAEL for vacuolation
Protocol: (§2) In a single-dose neuronal toxicity study in adult rats, subcutaneously administered racemic ketamine caused neuronal vacuolation in layer I of the retrosplenial cortex of the brain without neuronal necrosis at a dose of 60 mg/kg. The NOAEL for vacuolation in this study was 15 mg/kg. […] The relevance of these findings to humans is unknown.

adult rats = test: as above; type: in vivo, rat
Protocol: as §2

mouse lymphoma = test: In vitro mouse lymphoma test; details: in the presence of metabolic activation
[3] = system: adult female Sprague Dawley rats; details: 3 hours after a single intraperitoneal injection (Jevtovic-Todorovic 2000); cited from earlier work
Ames test = details: with or without metabolic activation
bone marrow = test: In vivo bone marrow micronucleus test; design: species or system mice; details: intraperitoneally-injected
[4] = system: posterior cingulate gyrus (PCG) and retrosplenial cortex (RSC); test: Single dose neurotoxicity study: brain histopathology (neuronal necrosis); details: single dose of 72 mg; 48 or 96 hours; hydrochloride
Protocol: In order to prepare for brain histopathology examination, all main study animals were perfused at necropsy. Prior to the perfusion, rats were anesthetized with isoflurane. After injection of 0.1 ml heparin, the blood of the rat was flushed out with a physiological saline solution by intraarterial insertion of a needle in the abdominal aorta. Thereafter the rat was perfused with glutaraldehyde 3% in potassium phosphate 0.09M and 1.4% sucrose.
The vehicle control, positive control, and esketamine HCl-dosed animals were sacrificed at either 48 hours (i.e., the first 12 or 15 rats per group) or 96 hours after the dose administration time (i.e., the last 12 or 15 rats per group). The brain tissue of the vehicle control-, positive control- and esketamine HCl-treated rats were processed at the same time and handled in the same way in batches of 4 or 5 animals per group.
Brain tissue was sampled and processed routinely. The trimmed and embedded tissue was sectioned and stained with hematoxylin-eosin (HE). Histoprocessing and staining were carried out in three batches of 4 animals per group (each batch thus containing 4 animals from vehicle control-, positive control- and the three esketamine HCl-treated groups). In the single dose study duplicate brain sections were stained with Fluoro-Jade (FJ).
All tissues showing gross abnormalities were examined macroscopically. […]

[5] = system: female Sprague-Dawley rats; test: 14-day repeated dose neurotoxicity study: mortality, clinical observations, body weight; type: in vivo, rat; details: 14 days
Protocol: (§3) Body weight and body weight gain were measured daily.

[6] = system: posterior cingulate gyrus (PCG) and retrosplenial cortex (RSC); test: 14-day repeated dose neurotoxicity study: brain histopathology (neuronal necrosis); details: up to 54 mg/day; 48 hours after the last instillation; hydrochloride
Protocol: The brain tissue of the vehicle control-, positive control- and esketamine HCl-treated rats were processed at the same time and handled in the same way in batches of 4 animals per group.
Brain tissue was sampled and processed routinely. The trimmed and embedded tissue was sectioned and stained with hematoxylin-eosin (HE). Histoprocessing and staining were carried out in three batches of 4 animals per group (each batch thus containing 4 animals from vehicle control-, positive control- and the three esketamine HCl-treated groups).
All tissues showing gross abnormalities were examined macroscopically. Histopathological examination was performed on 7 levels of brain tissue according to Bolon (2013. Toxicol. Pathol. 41(7), 1028-1048) from the vehicle control-, positive control-, and high dose esketamine HCl-treated groups in the single dose study, and in all groups in the repeated dose study.
The microscopic finding of neuronal necrosis in the PCG/RSC of the brain was graded unilaterally according to the number of necrotic neurons observed over the total length of the PCG/RSC structure visible in the tissue section (usually around 3-5 mm) utilizing the following criteria:

[7] = Solubility of esketamine HCl
Protocol: The clinical investigational product is an aqueous solution of the drug substance, esketamine hydrochloride (HCl). This formulation is administered intranasally to patients using a dual nasal spray device, which delivers one spray into each nostril. […] The formulation was stored at 37° C. for stability reasons until dosing.

[8] = system: female Sprague-Dawley rats; test: Single dose neurotoxicity study: mortality, clinical observations, body weight; type: in vivo, rat; details: for Abnormal respiration, incidence / Abnormal respiration: audible respiration, incidence / Abnormal respiration: bradypnoea, incidence / Ataxia, incidence / Catalepsy, incidence / Chromodacryorrhea, incidence / Decreased general activity, incidence / Decubitus, incidence / Increased general activity, incidence / Narrowed palpebral fissure, incidence / Piloerection, incidence / Salivation (out of normal), incidence: single dose
Protocol: The injection volume was 5 mL/kg.
as §3

[9] = estimating 50% of the exposure to be from esketamine

SMILES: CNC1(c2ccccc2Cl)CCCCC1=O (racemic) [ketamine]
- Esketamine AUC at the NOAEL, multiple of AUC at the MRHD of 84 mg/day (pregnant rats): 12 times
- NOAEL [1]: 150 mg/kg/day
- Esketamine exposure (AUC) at the NOAEL for skeletal malformations, multiple of exposure at MRHD of 84 mg/day (pregnant rabbits): 0.3 times
- NOAEL [2]: 15 mg/kg
- NOAEL for neuronal necrosis, multiple of clinical exposure at the MRHD, AUC (adult rats; [9]): 10 times
- NOAEL for neuronal necrosis, multiple of clinical exposure at the MRHD, Cmax (adult rats; [9]): 16 times
- NOAEL for neuronal vacuolation, multiple of clinical exposure at the MRHD, AUC (adult rats; [9]): 1.6 times
- NOAEL for neuronal vacuolation, multiple of clinical exposure at the MRHD, Cmax (adult rats; [9]): 4.5 times
- Dose causing neuronal vacuolation in layer I of the retrosplenial cortex without neuronal necrosis (adult rats; single subcutaneous dose): 60 mg/kg
- Mutagenicity (mouse lymphoma): positive
- ED50-value for the induction of neuronal vacuolation in the PCG/RSC [3]: 47.5 mg/kg body weight
- Mutagenicity (Ames test): not mutagenic
- Genotoxicity (bone marrow): did not show genotoxic properties

SMILES: CN[C@]1(c2ccccc2Cl)CCCCC1=O [esketamine HCl, (S)-2-(2-chlorophenyl)-2-(methylamino)cyclohexanone hydrochloride]
- Histopathological lesions in the brain [4]: absent; also recorded: no neuropathological lesions
- Abnormal respiration, incidence ([5]; 18 mg/day intranasal): 2/12
- Abnormal respiration: audible respiration, incidence ([5]; 18 mg/day intranasal): 2/12
- Abnormal respiration: bradypnoea, incidence ([5]; 18 mg/day intranasal): 0/12
- Ataxia, incidence ([5]; 18 mg/day intranasal): 12/12***
- Chromodacryorrhea, incidence ([5]; 18 mg/day intranasal): 0/12
- Decreased general activity, incidence ([5]; 18 mg/day intranasal): 5/12
- Decubitus, incidence ([5]; 18 mg/day intranasal): 0/12
- Increased general activity, incidence ([5]; 18 mg/day intranasal): 12/12***
- Salivation (out of normal), incidence ([5]; 18 mg/day intranasal): 12/12***
- Abnormal respiration, incidence ([5]; 36 mg/day intranasal): 11/12***
- Abnormal respiration: audible respiration, incidence ([5]; 36 mg/day intranasal): 6/12**
- Abnormal respiration: bradypnoea, incidence ([5]; 36 mg/day intranasal): 11/12***
- Ataxia, incidence ([5]; 36 mg/day intranasal): 12/12***
- Chromodacryorrhea, incidence ([5]; 36 mg/day intranasal): 0/12
- Decreased general activity, incidence ([5]; 36 mg/day intranasal): 12/12***
- Decubitus, incidence ([5]; 36 mg/day intranasal): 2/12
- Increased general activity, incidence ([5]; 36 mg/day intranasal): 12/12***
- Salivation (out of normal), incidence ([5]; 36 mg/day intranasal): 12/12***
- Abnormal respiration, incidence ([5]; 54 mg/day intranasal): 12/12***
- Abnormal respiration: audible respiration, incidence ([5]; 54 mg/day intranasal): 6/12**
- Abnormal respiration: bradypnoea, incidence ([5]; 54 mg/day intranasal): 12/12***
- Ataxia, incidence ([5]; 54 mg/day intranasal): 12/12***
- Chromodacryorrhea, incidence ([5]; 54 mg/day intranasal): 0/12
- Decreased general activity, incidence ([5]; 54 mg/day intranasal): 12/12***
- Decubitus, incidence ([5]; 54 mg/day intranasal): 8/12***
- Increased general activity, incidence ([5]; 54 mg/day intranasal): 12/12***
- Salivation (out of normal), incidence ([5]; 54 mg/day intranasal): 12/12***
- Histopathological lesions in the brain [6]: No histopathological lesions
- Maximum solubility, as base ([7]; room temperature, pH 4.5, factor 1.15): 180 mg esketamine base/mL
- Solubility ([7]; water, methanol, ethanol): freely soluble in water and in methanol, and soluble in ethanol
- Abnormal respiration, incidence ([8]; 36 mg intranasal): 22/24 ***
- Abnormal respiration: audible respiration, incidence ([8]; 36 mg intranasal): 10/24 ***
- Abnormal respiration: bradypnoea, incidence ([8]; 36 mg intranasal): 22/24 ***
- Ataxia, incidence ([8]; 36 mg intranasal): 24/24 ***
- Catalepsy, incidence ([8]; 36 mg intranasal): 20/24 ***
- Chromodacryorrhea, incidence ([8]; 36 mg intranasal): 0/24
- Decreased general activity, incidence ([8]; 36 mg intranasal): 23/24 ***
- Decubitus, incidence ([8]; 36 mg intranasal): 23/24 ***
- Increased general activity, incidence ([8]; 36 mg intranasal): 24/24 ***
- Narrowed palpebral fissure, incidence ([8]; 36 mg intranasal): 7/24**
- Piloerection, incidence ([8]; 36 mg intranasal): 0/24
- Salivation (out of normal), incidence ([8]; 36 mg intranasal): 23/24 ***
- Duration of severely decreased activity with decubitus, bradypnea, ptosis and catalepsy (anesthesia) ([8]; 36 mg, after the last instillation): 15 to 30 min
- Abnormal respiration, incidence ([8]; 54 mg intranasal): 22/24 ***
- Abnormal respiration: audible respiration, incidence ([8]; 54 mg intranasal): 3/24
- Abnormal respiration: bradypnoea, incidence ([8]; 54 mg intranasal): 21/24 ***
- Ataxia, incidence ([8]; 54 mg intranasal): 24/24 ***
- Catalepsy, incidence ([8]; 54 mg intranasal): 23/24 ***
- Chromodacryorrhea, incidence ([8]; 54 mg intranasal): 0/24
- Decreased general activity, incidence ([8]; 54 mg intranasal): 23/24 ***
- Decubitus, incidence ([8]; 54 mg intranasal): 23/24 ***
- Increased general activity, incidence ([8]; 54 mg intranasal): 24/24 ***
- Narrowed palpebral fissure, incidence ([8]; 54 mg intranasal): 10/24 ***
- Piloerection, incidence ([8]; 54 mg intranasal): 0/24
- Salivation (out of normal), incidence ([8]; 54 mg intranasal): 24/24 ***
- Duration of ataxia after the decrease in activity had subsided ([8]; 54 mg, hydrochloride): 1.5 to 3 h and 1 to 3 h
- Duration of ataxia after the decrease in activity had subsided ([8]; 72 mg): ≥ 3 h
- Abnormal respiration, incidence ([8]; 72 mg intranasal): 30/30 ***
- Abnormal respiration: audible respiration, incidence ([8]; 72 mg intranasal): 2/30
- Abnormal respiration: bradypnoea, incidence ([8]; 72 mg intranasal): 30/30 ***
- Catalepsy, incidence ([8]; 72 mg intranasal): 30/30 ***
- Chromodacryorrhea, incidence ([8]; 72 mg intranasal): 0/30
- Decreased general activity, incidence ([8]; 72 mg intranasal): 30/30 ***
- Decubitus, incidence ([8]; 72 mg intranasal): 30/30 ***
- Increased general activity, incidence ([8]; 72 mg intranasal): 29/30 ***
- Narrowed palpebral fissure, incidence ([8]; 72 mg intranasal): 22/30 ***
- Piloerection, incidence ([8]; 72 mg intranasal): 0/30
- Salivation (out of normal), incidence ([8]; 72 mg intranasal): 29/30 ***
